Assay results: patent publication US20250059179A1, “Heterocyclic Compounds and Methods of Use” (AMGEN INC., priority 2021, published 2025)

Columns and labels:
[1] = target: GDP-bound KRAS protein (aa 1-169), containing both G12D and C118A amino acid substitutions (Homo sapiens, UniProt P01116, C118A/G12D); experiment: KRAS G12D Coupled Nucleotide Exchange Assay; format: biochemical; settings: 2 h compound pre-incubation; SOS-mediated nucleotide exchange, cRAF AlphaScreen readout;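 further: IC50 obtained by fitting the AlphaScreen signal with a four-parameter logistic curve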
[2] = target: His-tagged KRAS G12D protein (Homo sapiens, UniProt P01116, G12D); experiment: KRAS G12D TR-FRET Assay; format: binding; settings: biotinylated KRPep-2d substrate, 10 μM GDP;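 further: europium anti-His antibody paired with streptavidin-d2 as FRET partners, initial 30 min incubation, then peptide 1 h and detection reagents 1 h, all at room temperature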
[3] = system: Phosphorylation of ERK1/2 in A-427 cells; experiment: Phospho-ERK1/2 MSD Assay; format: cell-based; settings: Homo sapiens, A-427, 2 h, 2 h compound treatment, read-out: pERK (A427 cells) IC50
Protocol: A-427 (ATCC® HTB-53™) cells were cultured in RPMI 1640 Medium (ThermoFisher Scientific 11875093) containing 10% fetal bovine serum (ThermoFisher Scientific 16000044) and 1× penicillin-streptomycin-glutamine (ThermoFisher Scientific 10378016). Sixteen hours prior to compound treatment, A-427 cells were seeded in 96-well cell culture plates at a density of 25,000 cells/well and incubated at 37° C., 5% CO2. A compound dose-response titration was diluted in growth media, added to appropriate wells of a cell culture plate, and then incubated at 37° C., 5% CO2 for 2 h. Following compound treatment, cells were washed with ice-cold Dulbecco's phosphate-buffered saline, no Ca^2+ or Mg^2+ (ThermoFisher Scientific 14190144), and then lysed in RIPA buffer (50 mM Tris-HCl pH 7.5, 1% Igepal, 0.5% sodium deoxycholate, 150 mM NaCl, and 0.5% sodium dodecyl sulfate) containing protease inhibitors (Roche 4693132001) and phosphatase inhibitors (Roche 4906837001). Phosphorylation of ERK1/2 in compound-treated lysates was assayed using Phospho-ERK1/2 Whole Cell Lysate kits (Meso Scale Discovery K151DWD) according to the manufacturer's protocol. Assay plates were read on a Meso Scale Discovery Sector Imager 6000, and data were analyzed using a 4-parameter logistic model to calculate IC50 values.

Sequence of GDP-bound KRAS protein (aa 1-169), containing both G12D and C118A amino acid substitutions (P01116 1-169 isoform P01116-2 G12D/C118A): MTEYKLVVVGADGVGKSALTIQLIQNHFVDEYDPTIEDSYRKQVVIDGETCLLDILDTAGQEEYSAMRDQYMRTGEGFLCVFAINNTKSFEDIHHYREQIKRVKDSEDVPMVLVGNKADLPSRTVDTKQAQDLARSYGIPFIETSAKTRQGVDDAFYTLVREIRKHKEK
Sequence of His-tagged KRAS G12D protein (P01116 1-188 isoform P01116-2 G12D): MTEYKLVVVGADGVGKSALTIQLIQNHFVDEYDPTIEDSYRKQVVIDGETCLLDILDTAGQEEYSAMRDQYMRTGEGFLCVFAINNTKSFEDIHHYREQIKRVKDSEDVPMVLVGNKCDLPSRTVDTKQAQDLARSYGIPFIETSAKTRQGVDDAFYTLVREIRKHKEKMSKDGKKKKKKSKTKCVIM

SMILES: Nc1nc2c(-c3ccc4c(N5C[C@H]6CC[C@@H](C5)N6)nc(OC[C@@]56CCCN5C[C@H](F)C6)nc4c3)ccc(F)c2s1 [Example 133, 4-(4-((1R,5S)-3,8-diazabicyclo[3.2.1]octan-3-yl)-2-(((2R,7aS)-2-fluorotetrahydro-1H-pyrrolizin-7a(5H)-yl)methoxy)quinazolin-7-yl)-7-fluorobenzo[d]thiazol-2-amine]
- Avg 2 h Coupled Exchange IC50 [1]: 6 nM
- IC50 [2]: 74 nM
- IC50 [3]: 4440 nM

SMILES: CN1CCCCC1CCOc1nc(N2CCNCC2)c2cc(Cl)c(-c3cccc4sc(N)nc34)c(F)c2n1 (stereo not drawn) [Example 60, 4-(6-chloro-8-fluoro-2-(2-(1-methylpiperidin-2-yl)ethoxy)-4-(piperazin-1-yl)quinazolin-7-yl)benzo[d] thiazol-2-amine]
- Avg 2 h Coupled Exchange IC50 [1]: 343 nM
- IC50 [2]: 480 nM
- IC50 [3]: > 25000 nM

SMILES: Nc1nc2c(-c3c(Cl)cc4c(N5CC6CNCC5C6)nc(OC[C@@]56CCCN5C[C@H](F)C6)nc4c3F)ccc(F)c2s1 (single isomer, unassigned) [Example 29]
- Avg 2 h Coupled Exchange IC50 [1]: 13 nM
- IC50 [2]: 107 nM
- IC50 [3]: 4730 nM

SMILES: Nc1nc2c(-c3c(Cl)cc4c(N5CCNCC5)nc(OC[C@@]56CCCN5[C@@H](CO)CC6)nc4c3F)cccc2s1 [Example 51, ((3R,7aS)-7a-(((7-(2-aminobenzo[d]thiazol-4-yl)-6-chloro-8-fluoro-4-(piperazin-1-yl)quinazolin-2-yl)oxy)methyl)hexahydro-1H-pyrrolizin-3-yl)methanol]
- Avg 2 h Coupled Exchange IC50 [1]: 42 nM
- IC50 [2]: 53 nM
- IC50 [3]: 16700 nM

SMILES: C=Cc1cc2c(N3[C@@H]4CC[C@H]3CNC4)nc(OC[C@@]34CCCN3C[C@H](F)C4)nc2c(F)c1-c1ccc(F)c2sc(N)nc12 [Example 151, 4-(4-((1R,5S)-3,8-diazabicyclo[3.2.1]octan-8-yl)-8-fluoro-2-(((2R,7aS)-2-fluorotetrahydro-1H-pyrrolizin-7a(5H)-yl)methoxy)-6-vinylquinazolin-7-yl)-7-fluorobenzo[d]thiazol-2-amine]
- Avg 2 h Coupled Exchange IC50 [1]: 5 nM
- IC50 [2]: 5 nM
- IC50 [3]: 33 nM

SMILES: Nc1nc2c(-c3c(Cl)cc4c(N5[C@@H]6CNC[C@H]5COC6)nc(OC[C@@]56CCCN5C[C@H](F)C6)nc4c3F)ccc(F)c2s1 [Example 122, 4-(4-((1R,5S)-3-Oxa-7,9-diazabicyclo[3.3.1]nonan-9-yl)-6-chloro-8-fluoro-2-(((2R,7aS)-2-fluorotetrahydro-1H-pyrrolizin-7a(5H)-yl)methoxy)quinazolin-7-yl)-7-fluorobenzo[d]thiazol-2-amine]
- Avg 2 h Coupled Exchange IC50 [1]: 3 nM
- IC50 [2]: 4 nM
- IC50 [3]: 167 nM

SMILES: CN1CCC[C@H]1COc1nc(N2C3CNCC2C3)c2cc(Cl)c(-c3cccc4sc(N)nc34)c(F)c2n1 [Example 18, 4-(4-(3,6-diazabicyclo[3.1.1]heptan-6-yl)-6-chloro-8-fluoro-2-(((S)-1-methylpyrrolidin-2-yl)methoxy)quinazolin-7-yl)benzo[d]thiazol-2-amine]
- Avg 2 h Coupled Exchange IC50 [1]: 49 nM
- IC50 [2]: 158 nM
- IC50 [3]: > 25000 nM

SMILES: Nc1nc2c(-c3c(Cl)cc4c(N5CC6CC5CCN6)nc(OC[C@@]56CCCN5C[C@H](F)C6)nc4c3F)ccc(F)c2s1 (stereo partly drawn) [Example 34, 4-(4-(2,6-diazabicyclo[3.2.1]octan-6-yl)-6-chloro-8-fluoro-2-(((2R,7aS)-2-fluorotetrahydro-1H-pyrrolizin-7a(5H)-yl)methoxy)quinazolin-7-yl)-7-fluorobenzo[d] thiazol-2-amine]
- Avg 2 h Coupled Exchange IC50 [1]: 4 nM
- IC50 [2]: 11 nM
- IC50 [3]: 3100 nM

SMILES: CN1CCC[C@H]1COc1nc(N2CCCNCCC2)c2cc(Cl)c(-c3cccc4sc(N)nc34)c(F)c2n1 [Example 35, 4-(6-chloro-4-(1,5-diazocan-1-yl)-8-fluoro-2-(((S)-1-methylpyrrolidin-2-yl)methoxy)quinazolin-7-yl)benzo[d]thiazol-2-amine]
- Avg 2 h Coupled Exchange IC50 [1]: 65 nM
- IC50 [2]: 336 nM
- IC50 [3]: > 10000 nM

SMILES: Nc1nc2c(-c3c(Cl)cc4c(N5[C@@H]6CC[C@H]5CNC6)nc(OC[C@@]56CCCN5C[C@H](F)C6)nc4c3F)ccc(F)c2s1 [Example 2, 4-(4-((1R,5S)-3,8-diazabicyclo[3.2.1]octan-8-yl)-6-chloro-8-fluoro-2-(((2R,7aS)-2-fluorotetrahydro-1H-pyrrolizin-7a(5H)-yl)methoxy)quinazolin-7-yl)-7-fluorobenzo[d] thiazol-2-amine]
- Avg 2 h Coupled Exchange IC50 [1]: 4 nM
- IC50 [2]: 5 nM
- IC50 [3]: 23 nM

SMILES: Nc1nc2c(-c3c(Cl)cc4c(N5CCNCC5)nc(OC[C@@H]5CCCN5)nc4c3F)cccc2s1 [Example 72, 4-(6-chloro-8-fluoro-4-(piperazin-1-yl)-2-(((S)-pyrrolidin-2-yl)methoxy)quinazolin-7-yl)benzo[d] thiazol-2-amine]
- Avg 2 h Coupled Exchange IC50 [1]: 63 nM
- IC50 [2]: 112 nM
- IC50 [3]: > 10000 nM

SMILES: CCc1cc2c(N3CCNCC3)nc(OC[C@@H]3CCCN3C)nc2c(F)c1-c1cccc2sc(N)nc12 [Example 152, 4-(6-Ethyl-8-fluoro-2-(((S)-1-methylpyrrolidin-2-yl)methoxy)-4-(piperazin-1-yl)quinazolin-7-yl)benzo[d]thiazol-2-amine]
- Avg 2 h Coupled Exchange IC50 [1]: 95 nM
- IC50 [2]: 217 nM
- IC50 [3]: > 25000 nM

SMILES: C=Cc1cc2c(N3CCNCC3)nc(OC[C@@H]3CCCN3C)nc2c(F)c1-c1cccc2sc(N)nc12 [Example 149, 4-(8-fluoro-2-(((S)-1-methylpyrrolidin-2-yl)methoxy)-4-(piperazin-1-yl)-6-vinylquinazolin-7-yl)benzo[d]thiazol-2-amine]
- Avg 2 h Coupled Exchange IC50 [1]: 25 nM
- IC50 [2]: 121 nM
- IC50 [3]: 6930 nM

SMILES: Nc1nc2c(-c3c(Cl)cc4c(N5C[C@H]6C[C@@H](C5)N6)nc(OC[C@@]56CCCN5C[C@H](F)C6)nc4c3F)ccc(F)c2s1 [Example 6, 4-(4-((1R,5S)-3,6-diazabicyclo[3.1.1]heptan-3-yl)-6-chloro-8-fluoro-2-(((2R,7aS)-2-fluorotetrahydro-1H-pyrrolizin-7a(5H)-yl)methoxy)quinazolin-7-yl)-7-fluorobenzo[d] thiazol-2-amine]
- Avg 2 h Coupled Exchange IC50 [1]: 5 nM
- IC50 [2]: 5 nM
- IC50 [3]: 364 nM

SMILES: Nc1nc2c(-c3cc4nc(OC[C@@]56CCCN5C[C@H](F)C6)nc(N5C[C@H]6CC[C@@H](C5)N6)c4cc3F)ccc(F)c2s1 [Example 132, 4-(4-((1R,5S)-3,8-diazabicyclo[3.2.1]octan-3-yl)-6-fluoro-2-(((2R,7aS)-2-fluorotetrahydro-1H-pyrrolizin-7a(5H)-yl)methoxy)quinazolin-7-yl)-7-fluorobenzo[d]thiazol-2-amine]
- Avg 2 h Coupled Exchange IC50 [1]: 4 nM
- IC50 [2]: 3 nM
- IC50 [3]: 440 nM

SMILES: Nc1nc2c(-c3c(Cl)cc4c(N5CCCNCC5)nc(OC[C@@]56CCCN5C[C@H](F)C6)nc4c3F)ccc(F)c2s1 [Example 28, 4-(6-chloro-4-(1,4-diazepan-1-yl)-8-fluoro-2-(((2R,7aS)-2-fluorotetrahydro-1H-pyrrolizin-7a(5H)-yl)methoxy)quinazolin-7-yl)-7-fluorobenzo[d] thiazol-2-amine]
- Avg 2 h Coupled Exchange IC50 [1]: 3 nM
- IC50 [2]: 8 nM
- IC50 [3]: 2300 nM
